Measurements as given in patent US20210032257A1, “(E)-1-(4-(DIMETHYLAMINO)BUT-2-ENOYL)PYRROLIDIN-3-YL 4-((3-ISOPROPYL-5-METHYLPYRAZOLO[1,5-A]PYRIMIDIN-7-YL)AMINO)PIPERIDINE-1-CARBOXYLATE FOR INHIBITING CDK7” (Eli Lilly and Company, priority 2017, published 2021).

Columns and labels:
Assay type in all cases: cell-based
[1] = test system: A2780; test: Cell Proliferation Assay (CELL TITER GLO); details: Homo sapiens, 168 h; A2780, Ovarian Cancer, seven days
Method: (§1) Cell lines are plated at the density 5000 cells per well in 100 μL per well growth medium into a white 96-well cell culture plate. See Table 2 for cell line and culture medium information. Plates are incubated at 37° C. and 5% CO2. The following day, a serial dilution of the test compound is prepared by diluting the compound 1:3 in DMSO for 10 points. The DMSO plate is 1000× the final concentration. In addition to the CDK7 inhibitor, a DMSO alone column is included as a maximum growth control and 10 μM staurosporine final column is included as a maximum growth inhibition control. A 10× dilution plate is then prepared by adding 2 μL per well from the 1000×DMSO plate to 198 μL per well of OMEM (Life Technologies, Carlsbad, Calif., cat #31985-070). Cells are treated with indicated compound by adding 11 μL per well from the 10×OMEM plate to the cell plate containing 100 μL per well growth medium for a 1× final concentration. Plates are placed back into the incubator at 37° C. and 5% CO2. Seven days after compound addition, plates are removed from the incubator and allowed to equilibrate to RT. CELL TITER GLO® reagent is thawed at room temperature and then prepare by mixing one vial of assay buffer with one vial of substrate and swirl gently to mix. CELL TITER GLO® reagent is then added to the cell plate, 100 μL per well, and place on a Titer Plate Shaker at speed setting 2 for 15 minutes at room temperature. After 15 minute incubation on shaker, luminescence is read, 1 second per well, using a Wallac VICTOR2™. Nonlinear regression and sigmoidal dose-response curves are used to calculate the half maximal inhibitory concentration (IC50) with Graphpad Prism 6 software.

[2] = test system: HCC1806; test: Cell Proliferation Assay (CELL TITER GLO); details: Homo sapiens, 168 h; HCC1806, Breast Cancer, seven days
Method: as §1

[3] = test system: HCT116; test: Cell Proliferation Assay (CELL TITER GLO); details: Homo sapiens, HCT-116, 168 h; HCT116, Colorectal Cancer, seven days
Method: as §1

[4] = test system: MCF7; test: Cell Proliferation Assay (CELL TITER GLO); details: Homo sapiens, 168 h; MCF7, Breast Cancer, seven days
Method: as §1

[5] = test system: NCI-H446; test: Cell Proliferation Assay (CELL TITER GLO); details: Homo sapiens, 168 h; NCI-H446, Lung Cancer, seven days
Method: as §1

[6] = test system: NCI-H460; test: Cell Proliferation Assay (CELL TITER GLO); details: Homo sapiens, 168 h; NCI-H460, Lung Cancer, seven days
Method: as §1

[7] = test system: SNU-16; test: Cell Proliferation Assay (CELL TITER GLO); details: Homo sapiens, 168 h; SNU-16, Gastric Cancer, seven days
Method: as §1

[8] = test system: ARID1A mutants cancer cell lines; test: Biomarker study: distribution of anti-proliferation effects
Method: (§2) Cancer cell lines are profiled to evaluate the anti-proliferative activity of a test compound in-vitro. Mutation, copy number and gene expression information of ARID1A, KMT2C, KMT2D and/or RB1 genes across cancer cell lines is obtained from COSMIC database (cancer.sanger.ac.uk) and cBioportal (http://www.cbioportal.org/). Cells are cultured in growth medium and plated into a 96-well plate in 100 μL/well growth medium at 5000 cells/well then incubated at 37° C., 5% CO2 overnight. Cells are cultured using supplier recommended media and conditions well known in the art, for example with RPMI 1640 with or without HEPES & L-Glutamine (Thermo SH30255.01) and 1 mM Sodium Pyruvate, and 10% FBS(Gibco cat #10082). The 1000× intermediate dilution plate is prepared by making a 10 mM working solution of a test sample in DMSO and performing 1:3 dilutions in DMSO for 10 points. The 10× dosing plate is prepared by adding 2 μL from the 1000× intermediate dilution plate to 198 μL of OPTIMEM®+10% FBS and mixing well. The cell plate is then treated by adding 11 μL from the 10× dosing plate into the 100 μL/well cell plate for a 1× final concentration. Staurosporine is used as a maximum growth inhibition control at a final concentration of 5 μM. The cell plate is incubated for 7 days at 37° C., 5% CO2. Seven days after treatment, Cell Titer-Glo® (Promega cat #G7571) assay buffer and substrate are removed from −20° C. and allowed to equilibrate to RT. Assay buffer is added to the substrate and swirled gently to mix. The CELL TITER-GLO® reagent (100 μL/well) is added to the cell plate and incubated at RT for 15 minutes. After 15 minutes, luminescence is read using a plate reader. Data is analyzed in Excel and graphed in GraphPad Prism. Statistical analysis and p value is calculated using Mann-Whitney nonparameteric t tests using GraphPad Prism.
(§3) Anti-proliferative effects of a test compound are categorized as insensitive (IC50≥1 μM), cytostatic (IC50<1 μM and % inhibition <70%) or cytotoxic (IC50<1 μM and % inhibition ≥70%).

[9] = test system: KMT2C mutants cancer cell lines; test: as above
Method: as §2, §3

[10] = test system: KMT2D mutants cancer cell lines; test: as above
Method: as §2, §3

[11] = test system: Others (cancer cell lines); test: as above
Method: as §2, §3

[12] = test system: RB1 mutants cancer cell lines; test: as above
Method: as §2, §3

## Cc1cc(NC2CCN(C(=O)O[C@H]3CCN(C(=O)/C=C/CN(C)C)C3)CC2)n2ncc(C(C)C)c2n1 [Example 1, [(3S)-1-[(E)-4-(dimethylamino)but-2-enoyl]pyrrolidin-3-yl] 4-[(3-isopropyl-5-methyl-pyrazolo[1,5-a]pyrimidin-7-yl)amino]piperidine-1-carboxylate]
[1]
  IC50: 26.5 nM
[2]
  IC50: 25.5 nM
[3]
  IC50: 46 nM
[4]
  IC50: 32 nM
[5]
  IC50: 14.2 nM
[6]
  IC50: 47.9 nM
[7]
  IC50: 23.1 nM
[8]
  Distribution (%) of anti-proliferation effects: Cytotoxic (IC50 <1 μM, % Inh. ≥70): 64%, n = 25
[9]
  Distribution (%) of anti-proliferation effects: Cytotoxic (IC50 <1 μM, % Inh. ≥70): 70%, n = 7
[10]
  Distribution (%) of anti-proliferation effects: Cytotoxic (IC50 <1 μM, % Inh. ≥70): 76%, n = 19
[11]
  Distribution (%) of anti-proliferation effects: Cytotoxic (IC50 <1 μM, % Inh. ≥70): 40%, n = 41
[12]
  Distribution (%) of anti-proliferation effects: Cytotoxic (IC50 <1 μM, % Inh. ≥70): 54%, n = 22
